In patent US20090221624A1, “4-AMINOQUINOLINE COMPOUNDS FOR TREATING VIRUS-RELATED CONDITIONS” (priority 2005, published 2009):

Legend:
[1] = tested on: HCV replicon (Clone A cells, Huh7, subgenomic hepatits C virus RNA); experiment: HCV Neo screening assay (HCV replicon, NPTII ELISA); type: cell-based, hepatitis C virus; details: for inhibition at 25 µM / EC50: Hepatitis C virus, Huh-7; for inhibition at 25 µM: primary screening, 25 μM final concentration, 24 hours, percent inhibition of viral replication, read-out: HCV Inh; for EC50: Secondary Data, HCV; for HCV TI: therapeutic index CC50/EC50, HCV
RSV minigenome = experiment: RSV minigenome-dependent β-galactosidase expression assay (RSV β-Gal); type: cell-based, respiratory syncytial virus; details: for EC50 / inhibition at 25 µM: human respiratory syncytial virus; for EC50: Secondary Data, RSV, read-out: RSV EC50; for inhibition at 25 µM: primary screening, 25 μM final concentration, 24 hours, percent inhibition of viral replication, read-out: RSV Inh; for RSV TI: therapeutic index CC50/EC50, RSV
WNV (WN-hRuPac cells) = experiment: WNV antiviral activity, WN-hRuPac cells, Renilla luciferase; type: cell-based, West Nile virus; details: for EC50 / inhibition at 25 µM: West Nile virus; for EC50: Secondary Data, WNV, read-out: WNV EC50; for inhibition at 25 µM: primary screening, 25 μM final concentration, 24 hours, percent inhibition of viral replication, read-out: WNV Inh; for WNV TI: therapeutic index CC50/EC50, WNV
YFV (YF-hRuPac cells) = experiment: microbe, parasite or virus in culture; type: cell-based, yellow fever virus; details: for inhibition at 25 µM / EC50: Yellow fever virus; for inhibition at 25 µM: 24 h, read-out: YFV Inh; for EC50: read-out: YFV EC50
DNG (D2-hRuPac cells) = experiment: DNG antiviral activity, D2-hRuPac cells, Renilla luciferase; type: cell-based, Dengue fever virus; details: Dengue virus, secondary screening
EBOV minigenome = experiment: microbe, parasite or virus in culture; type: cell-based, Ebola virus; details: Zaire ebolavirus; for inhibition at 25 µM: 24 h, read-out: EBOV Inh; for EC50: read-out: EBOV EC50
SINV (SR19-F-luc cells) = experiment: SINV antiviral activity, SR19-F-luc cells, Firefly luciferase; type: cell-based; details: Sindbis virus; for inhibition at 25 µM: primary screening, 25 μM final concentration, 24 hours, percent inhibition of viral replication, read-out: SINV Inh; for EC50: secondary screening, SR19-F-luc cells

| SMILES | inhibition at 25 µM [1] [%] | EC50 (RSV minigenome) [µM] | inhibition at 25 µM (RSV minigenome) [%] | RSV TI (RSV minigenome) | EC50 (WNV (WN-hRuPac cells)) [µM] | inhibition at 25 µM (WNV (WN-hRuPac cells)) [%] | YFV TI (YFV (YF-hRuPac cells)) | inhibition at 25 µM (YFV (YF-hRuPac cells)) [%] | EC50 (YFV (YF-hRuPac cells)) [µM] | EC50 (DNG (D2-hRuPac cells)) [µM] | inhibition at 25 µM (EBOV minigenome) [%] | EC50 (EBOV minigenome) [µM] | inhibition at 25 µM (SINV (SR19-F-luc cells)) [%] | EC50 (SINV (SR19-F-luc cells)) [µM] | CC50 (in vitro; DNG CC50) [µM] | CC50 (in vitro; EBOV CC50) [µM] | CC50 (in vitro; RSV CC50) [µM] | CC50 (in vitro; SINV CC50) [µM] | CC50 (in vitro; WNV CC50) [µM] | CC50 (in vitro; YFV CC50) [µM] | other results |
| --- | --- | --- | --- | --- | --- | --- | --- | --- | --- | --- | --- | --- | --- | --- | --- | --- | --- | --- | --- | --- | --- |
| Cc1ccc2nc(C)cc(N3CCC(C)CC3)c2c1 [Compound 15] | 45.1 | 7.34 | 72.6 | 9.94 | ≥ 75 | 55.9 | 1.57 | 37.5 | 46.4 | 71.9 | 49.2 | 71.1 | 72 | 5.58 | 72.9 | 72.9 | 72.9 | 72.9 | 72.9 | 72.9 | WNV TI (WNV (WN-hRuPac cells)): 0.97; CC50 (in vitro; HCV CC50): 35.7 µM |
| Cc1ccc2nc3c(c(Nc4ccc(O)cc4)c2c1)CCC3 [Compound 16] | 119 | 7.1 | 88.5 | 4.81 | 13.1 | 66.8 | 1.63 | 75.9 | 21 | 9.44 | 7.83 | 29.9 | 79.5 | 1.52 | 34.1 | 34.1 | 34.1 | 34.1 | 34.1 | 34.1 | EC50 [1]: 9 µM; HCV TI [1]: 3.72; WNV TI (WNV (WN-hRuPac cells)): 2.61; CC50 (in vitro; HCV CC50): 33.5 µM |
| CC(=O)c1cccc(Nc2cc(C)nc3ccccc23)c1 [Compound 17] | 12.3 | 37.3 | 50.7 | 2.01 | ≥ 75 | 40.3 | 1.18 | 54 | 63.6 | ≥ 75 | -42 | 75 | 72.1 | 3.83 | ≥ 75 | ≥ 75 | ≥ 75 | ≥ 75 | ≥ 75 | ≥ 75 | CC50 (in vitro; HCV CC50): 30.4 µM |
| Cc1ccc2nc(C)cc(NCc3ccccc3)c2c1 [Compound 18] | 36.9 | 5.57 | 88.6 | 10.12 | 21.3 | 63.9 | 6.21 | 61.5 | 9.07 | 31.5 | -29.5 | – | 54.4 | 15.3 | 56.4 | 56.4 | 56.4 | 56.4 | 56.4 | 56.4 | WNV TI (WNV (WN-hRuPac cells)): 2.65 |
| COc1ccc(Nc2cc(C)nc3ccccc23)cc1 [Compound 20] | 14.8 | 8.52 | 61.4 | 8.8 | ≥ 75 | 38.4 | 2.83 | 51 | 26.5 | 42 | 21 | 50.1 | 75.5 | 4.28 | ≥ 75 | ≥ 75 | ≥ 75 | ≥ 75 | ≥ 75 | ≥ 75 | CC50 (in vitro; HCV CC50): 64.2 µM |
| Cc1ccc2nc3c(c(Nc4ccc(N5CCOCC5)cc4)c2c1)CCC3 [Compound 21] | 159 | 4.16 | 99.4 | 10.77 | 9.62 | 62.7 | 7.16 | 63.1 | 6.26 | 20.2 | 46.5 | 47.9 | 69.7 | 12.1 | 44.8 | 44.8 | 44.8 | 44.8 | 44.8 | 44.8 | EC50 [1]: 8.09 µM; HCV TI [1]: 0.99; WNV TI (WNV (WN-hRuPac cells)): 4.66; CC50 (in vitro; HCV CC50): 8.02 µM |
| COc1cccc2c(Nc3ccc4c(c3)OCCO4)cc(C)nc12 [Compound 22] | 55.1 | 3 | 75.1 | 19.08 | 22.4 | 48.8 | 0.76 | 29.9 | ≥ 75 | 35.6 | 72 | 5.31 | -22.7 | 72.3 | 57.2 | 57.2 | 57.2 | 57.2 | 57.2 | 57.2 | EC50 [1]: 18.1 µM; HCV TI [1]: 0.75; WNV TI (WNV (WN-hRuPac cells)): 2.56; CC50 (in vitro; HCV CC50): 13.7 µM |
| Cc1ccc2nc(C)cc(NCc3ccco3)c2c1 [Compound 23] | 13.7 | 2.91 | 92 | 19.91 | 3.76 | 70.3 | 8.94 | 86.3 | 6.48 | 25.8 | -1.14 | 75 | 22.8 | ≥ 75 | 57.9 | 57.9 | 57.9 | 57.9 | 57.9 | 57.9 | WNV TI (WNV (WN-hRuPac cells)): 15.41; CC50 (in vitro; HCV CC50): ≥ 75 µM |
| CCc1ccccc1Nc1cc(C)nc2c(OC)cccc12 [Compound 24] | 43.7 | 4.5 | 94.7 | 12.86 | 25.6 | 73.9 | 0.77 | 67.3 | ≥ 75 | 27.7 | 35.3 | 55.8 | 64.1 | 16.6 | 57.9 | 57.9 | 57.9 | 57.9 | 57.9 | 57.9 | WNV TI (WNV (WN-hRuPac cells)): 2.26 |
| COc1cccc2c(Nc3cccc([N+](=O)[O-])c3)cc(C)nc12 [Compound 25] | 159 | 4.73 | 99.9 | 4.85 | 3.18 | 100 | 6.25 | 100 | 3.67 | 3.89 | 99.4 | 75 | 99.8 | 2.13 | 22.9 | 22.9 | 22.9 | 22.9 | 22.9 | 22.9 | EC50 [1]: 4.85 µM; HCV TI [1]: 2.62; WNV TI (WNV (WN-hRuPac cells)): 7.22; CC50 (in vitro; HCV CC50): 12.7 µM |
| Cc1ccc2nc3c(c(Nc4cccc(C(F)(F)F)c4)c2c1)CCC3 [Compound 26] | 148 | 4.1 | 99.9 | 12.95 | 3.71 | 62.2 | 8.88 | 77.2 | 5.98 | 48.2 | 38.8 | 75 | 53.3 | 18.5 | 53.1 | 53.1 | 53.1 | 53.1 | 53.1 | 53.1 | EC50 [1]: 7.57 µM; HCV TI [1]: 1.1; WNV TI (WNV (WN-hRuPac cells)): 14.32; CC50 (in vitro; HCV CC50): 8.35 µM |
| Cc1ccc2nc3c(c(Nc4ccccc4)c2c1)CCC3 [Compound 27] | 113 | 6 | 92.2 | 8.45 | 2.78 | 60 | 4.3 | 70.2 | 11.8 | 38.4 | -4.87 | 63.4 | 70.6 | 1.88 | 50.7 | 50.7 | 50.7 | 50.7 | 50.7 | 50.7 | EC50 [1]: 14 µM; HCV TI [1]: 1.73; WNV TI (WNV (WN-hRuPac cells)): 18.24; CC50 (in vitro; HCV CC50): 24.2 µM |
